The source of these data is patent US20090215805A1, “4-Heteroaryl Pyrimidine Derivatives and use thereof as Protein Kinase Inhibitors” (Cyclacel Limited, priority 2005, published 2009).

For orientation: Ki means a measure of affinity in units of concentration, obtained from inhibition or displacement. Low readings indicate higher affinity, high ones lower affinity. The IC50 is the concentration needed to halve the response being measured. The low end stands for greater potency in that assay, the high end for weaker potency in that assay. As usually defined, the EC50 is the concentration at which the effect is half-maximal. A higher EC50 goes with a less potent agent. What is called melting point is the temperature of the solid-liquid transition.

In the first data set the target is DM Aur A (Dm AK-A) (Drosophila melanogaster, UniProt Q9VGF9). The experiment in a line: Dm aurora A kinase assay (DM Aur A / Dm AK-A). Format: biochemical. The following applies: in vitro kinase assay. On the procedure: (§1) The compounds of the invention above were investigated for their ability to inhibit the enzymatic activity of various protein kinases. This was achieved by measurement of incorporation of radioactive phosphate from ATP into appropriate polypeptide substrates. Recombinant protein kinases and kinase complexes were produced or obtained commercially. Assays were performed using 96-well plates and appropriate assay buffers (typically 25 mM β-glycerophosphate, 20 mM MOPS, 5 mM EGTA, 1 mM DTT, 1 mM […], pH 7.4), into which were added 2-4 μg of active enzyme with appropriate substrates. The reactions were initiated by addition of Mg/ATP mix (15 mM MgCl2+100 μM ATP with 30-50 kBq per well of [γ-^32P]-ATP) and mixtures incubated as required at 30° C. Reactions were stopped on ice, followed by filtration through p81 filterplates or GF/C filterplates (Whatman Polyfiltronics, Kent, UK). After washing 3 times with 75 mM aq orthophosphoric acid, plates were dried, scintillant added and incorporated radioactivity measured in a scintillation counter (TopCount, Packard Instruments, Pangbourne, Berks, UK). Compounds for kinase assay were made up as 10 mM stocks in DMSO and diluted into 10% DMSO in assay buffer. Data was analysed using curve-fitting software (GraphPad Prism version 3.00 for Windows, GraphPad Software, San Diego Calif. USA) to determine IC50 values (concentration of test compound which inhibits kinase activity by 50%).
DM Aur A (Dm AK-A), sequence (Q9VGF9 entry or part of it): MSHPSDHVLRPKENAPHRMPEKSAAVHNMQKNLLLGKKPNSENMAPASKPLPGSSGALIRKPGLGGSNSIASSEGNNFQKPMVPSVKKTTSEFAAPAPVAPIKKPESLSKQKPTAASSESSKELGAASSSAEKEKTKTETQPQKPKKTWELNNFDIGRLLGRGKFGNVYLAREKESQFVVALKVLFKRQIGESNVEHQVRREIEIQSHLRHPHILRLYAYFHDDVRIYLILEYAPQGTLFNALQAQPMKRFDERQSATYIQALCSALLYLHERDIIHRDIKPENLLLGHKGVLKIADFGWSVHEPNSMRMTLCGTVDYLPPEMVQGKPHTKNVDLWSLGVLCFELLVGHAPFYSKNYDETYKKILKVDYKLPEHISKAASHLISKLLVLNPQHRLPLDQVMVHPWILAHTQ
Compound `Cc1[nH]c(C#N)c(C)c1-c1ccnc(Nc2ccc(Cl)nc2)n1` [Compound 30] yielded a Ki of 681 nM.
Compound `CCNS(=O)(=O)c1cccc(Nc2nccc(-c3c(C)[nH]c(C#N)c3C)n2)c1` [Compound 32] displayed an inhibition constant (Ki) of 161 nM.

Still in this data set, the particulars now being: values without asterisk (DM aurora A).
With `Cc1[nH]c(C#N)c(C)c1-c1ccnc(Nc2ccc(Cl)nc2)n1` [Compound 30], it took 861 nM to reach half-maximal inhibition (IC50).
Still for that read-out and setting: next, `CCNS(=O)(=O)c1cccc(Nc2nccc(-c3c(C)[nH]c(C#N)c3C)n2)c1` [Compound 32]: 413 nM.

A further data set concerns the target CDK2/E (Homo sapiens, UniProt P24941). Description: CDK2/E in vitro kinase assay. Format: biochemical.
Conditions: not given
On the procedure:
as §1
On to `Cc1[nH]c(C#N)c(C)c1-c1ccnc(Nc2ccc(N(C)C)c([N+](=O)[O-])c2)n1` [Compound 18], for which the Ki was found to be 119 nM. This counts as sub-micromolar.
Compound `Cc1[nH]c([N+](=O)[O-])c(C)c1-c1ccnc(Nc2ccc(N(C)C)c([N+](=O)[O-])c2)n1` [Compound 19] returned a Ki of 41 nM.
Compound `Cc1[nH]c(C#N)c(C)c1-c1ccnc(Nc2ccc(Cl)nc2)n1` [Compound 30] showed a Ki of 197 nM. Against the preceding compound, the Ki is about 4.8-fold higher.
Still for that read-out and setting: next, `CCNS(=O)(=O)c1cccc(Nc2nccc(-c3c(C)[nH]c(C#N)c3C)n2)c1` [Compound 32]: 377 nM.

The target of another data set is GSK3 (GSK-3β) (Oryctolagus cuniculus, UniProt A0A5F9DUX8). Description: GSK-3 kinase assay. It is filed as biochemical, rabbit. The conditions noted are these: in vitro kinase assay. On the procedure: GSK-3 was obtained from New England Biolabs (UK) Ltd., Hitchin, Herts. The recombinant enzyme was isolated from a strain of E. coli that carries a clone expressing GSK-3β derived from a rabbit skeletal muscle cDNA library [Wang, Q. M.; Fiol, C. J.; DePaoli-Roach, A. A.; Roach, P. J. J. Biol. Chem., 1994, 269, 14566]. Inhibition of GSK-3 function was assessed by measurement of phosphorylation of CREB phosphopeptide KRREILSRRPphosphoSYR in the presence of test compounds. Using a 96-well assay format, GSK3 (7.5 U) was incubated for 30 min at 30° C. in a total volume of 25 μL in 20 mM MOPS pH 7.2, 25 mM β-glycerophosphate, 5 mM EGTA, 1 mM DTT, 1 mM […], 40 μM CREB peptide, 15 mM MgCl2 and 100 μM ATP (containing 0.25 μCi [γ-^32P]-ATP) in the presence of varying concentrations of test compound. The samples were transferred to 96-well p81 filter plates (Whatman Polyfiltronics, Kent, UK), and the plates were washed 4 times with 200 μL/well of 75 mM aq orthophosphoric acid. Scintillation liquid (50 μL) was added to each well, and incorporated radioactivity for each sample was determined using a scintillation counter (TopCount, Packard Instruments, Pangboume, Berks, UK).
GSK3 (GSK-3β), sequence (A0A5F9DUX8 entry or part of it): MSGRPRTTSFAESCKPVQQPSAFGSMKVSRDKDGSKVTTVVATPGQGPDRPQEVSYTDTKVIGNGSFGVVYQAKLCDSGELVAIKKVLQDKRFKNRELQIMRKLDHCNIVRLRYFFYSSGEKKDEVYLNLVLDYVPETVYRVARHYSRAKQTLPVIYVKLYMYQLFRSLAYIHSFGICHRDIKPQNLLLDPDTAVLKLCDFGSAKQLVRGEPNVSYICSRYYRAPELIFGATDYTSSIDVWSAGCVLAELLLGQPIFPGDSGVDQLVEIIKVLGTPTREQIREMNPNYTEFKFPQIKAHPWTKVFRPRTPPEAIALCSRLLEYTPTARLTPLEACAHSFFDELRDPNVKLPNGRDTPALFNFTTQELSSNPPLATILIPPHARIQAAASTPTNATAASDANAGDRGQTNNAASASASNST
Compound `Cc1[nH]cc(-c2ccccc2)c1-c1ccnc(Nc2ccc(F)cc2)n1` [Compound 16] came in with an inhibition constant (Ki) of 45 nM.
`Cc1[nH]c(C#N)c(C)c1-c1ccnc(Nc2ccc(N(C)C)c([N+](=O)[O-])c2)n1` [Compound 18] gave a Ki of 5 nM.
The same measure, in the same setting: for `Cc1[nH]c([N+](=O)[O-])c(C)c1-c1ccnc(Nc2ccc(N(C)C)c([N+](=O)[O-])c2)n1` [Compound 19] the value was 4 nM; for `Cc1[nH]c(C#N)c(C)c1-c1ccnc(Nc2ccc(Cl)nc2)n1` [Compound 30], 3 nM; for `CCNS(=O)(=O)c1cccc(Nc2nccc(-c3c(C)[nH]c(C#N)c3C)n2)c1` [Compound 32], 3 nM.

In a further data set the test system is Glycogen synthase activation in HEK293 cells. The experiment in a line: Glycogen synthase activation in HEK293 cells. It is filed as cell-based. The following applies: Homo sapiens, 1.5 h, 90 minutes treatment. On the procedure: (§2) HEK293 cells, mouse adipocytes or rat myotubes were treated in 10 cm Petri dishes with different concentrations of GSK3 inhibitors for 90 minutes. At the end of the treatment period the cells were washed and scraped in ice cold PBS buffer supplemented with 20 mM NaF. The cells were pelleted by centrifugation and lysed in 300 μl buffer-50 mM HEPES pH 7.5, 10 mM EDTA, 100 mM NaF, 5 mM DTT, protease inhibitor cocktail (Sigma). After incubation for 30 min on ice the samples were cleared by centrifugation. The activity of glycogen synthase was determined in the soluble fraction at two different concentrations of […]-low (0.1 mM) and high (10 mM). The reaction was carried out for 30 min in a buffer—50 mM Tris pH 7.8, 20 mM EDTA, 25 mM NaF, S mM DTT. The reaction mixture (total volume of 90 μl) consisted as well of 1% glycogen, 0.3 mM UDP-glucose and 0.06 μCi ^14C-UDP-glucose. Reaction was stopped by transfer of 70 μl to a GFC 96-well filter plate, containing 140 μl 100% ethanol an the glycogen was allowed to precipitate for 1 h at 4° C. The wells were washed 2 times with 200 μl 66% ethanol and than let to dry. Subsequently, 100 μl of scintillation liquid were added, and plates were sealed and counted in a Packard Topcounter. Glycogen synthase activation was calculated as the ratio between the incorporation of labelled ^14C-UDP-glucose in glycogen at low and high concentration of […] (fractional velocity).
Compound `Cc1[nH]c(C#N)c(C)c1-c1ccnc(Nc2ccc(N(C)C)c([N+](=O)[O-])c2)n1` [Compound 18] came in with a concentration for a half-maximal effect (EC50) of 1500 nM.
As for `Cc1[nH]c([N+](=O)[O-])c(C)c1-c1ccnc(Nc2ccc(N(C)C)c([N+](=O)[O-])c2)n1` [Compound 19], the concentration for a half-maximal effect (EC50) was 700 nM.
Compound `Cc1[nH]c(C#N)c(C)c1-c1ccnc(Nc2ccc(Cl)nc2)n1` [Compound 30] gave an EC50 of 2200 nM. Against the preceding compound, the EC50 is about 3.1-fold higher.
The same measure, in the same setting: for `CCNS(=O)(=O)c1cccc(Nc2nccc(-c3c(C)[nH]c(C#N)c3C)n2)c1` [Compound 32] the value was 4100 nM.

The next data set relates to Glycogen synthase activation in mouse adipocytes (3T3-L1). Description: Glycogen synthase activation in mouse adipocytes (3T3-L1). Format: cell-based. The following applies: 1.5 h; 3T3-L1 mouse adipocytes, 90 minutes treatment. On the procedure:
3T3-L1 mouse pre-adipocytes were grown in DMEM supplemented with 10% FCS and pen/strep until fully confluent. Cell differentiation was initiated by the addition of 0.5 mM IBMX (2-isobutyl-1-methylxanthine), 0.25 μM Dexamethasone and 1 μg/ml insulin into the growth media. The differentiation media was replaced after 4 days and 7 days after the initiation of differentiation the cells were grown for additional 3 days in DMEM, 10% FCS and pen/strep.
as §2
For the compound `Cc1[nH]c(C#N)c(C)c1-c1ccnc(Nc2ccc(N(C)C)c([N+](=O)[O-])c2)n1` [Compound 18], the EC50 is 4120 nM.
Same read-out and setting: for `Cc1[nH]c([N+](=O)[O-])c(C)c1-c1ccnc(Nc2ccc(N(C)C)c([N+](=O)[O-])c2)n1` [Compound 19] the value was 5600 nM; for `Cc1[nH]c(C#N)c(C)c1-c1ccnc(Nc2ccc(Cl)nc2)n1` [Compound 30], 4300 nM; for `CCNS(=O)(=O)c1cccc(Nc2nccc(-c3c(C)[nH]c(C#N)c3C)n2)c1` [Compound 32], 2100 nM.

In the next data set the test system is Glycogen synthase activation in rat myotubes (L6.G8.C5). The experiment in a line: Glycogen synthase activation in rat myotubes (L6.G8.C5). The following applies: Myotube, 1.5 h, 90 minutes treatment. Format: cell-based. On the procedure:
Rat myotubes were differentiated from L6.G8.C5 myoblasts, which were grown in DMEM, 10% FCS and pen/strep until confluent. The media was then removed, cells washed with PBS and differentiation media containing minimal essential media eagles (alpha modified) supplemented with 2% FCS and pen/strep. The cells were cultured for 3-4 days until >90% of cells have formed multinucleated myotubes. The differentiated cells were then used for determination of glycogen synthase activation after treatment with GSK3 inhibitors.
as §2
For the compound `Cc1[nH]c([N+](=O)[O-])c(C)c1-c1ccnc(Nc2ccc(N(C)C)c([N+](=O)[O-])c2)n1` [Compound 19], the concentration giving a half-maximal response (EC50) was found to be 6300 nM.
The same measure, in the same setting: next, `Cc1[nH]c(C#N)c(C)c1-c1ccnc(Nc2ccc(Cl)nc2)n1` [Compound 30]: 2300 nM; `CCNS(=O)(=O)c1cccc(Nc2nccc(-c3c(C)[nH]c(C#N)c3C)n2)c1` [Compound 32]: 5000 nM.

The next data set relates to PEPCK gene expression in HEPG2 cells. The experiment in a line: PEPCK gene expression in HEPG2 cells - QPCR assay. The conditions noted are these: HEPG2, Dex/cAMP +, concentration 0.1 uM; percentage of the dexametasone-induced stimulation. Format: cell-based. On the procedure: PEPCK gene expression was studied in HEPG2 (hepatocarcinoma) cells, seeded in 6-well plate at […] cells per well. The cells were serum starved for 20 hours before treatment with dexamethasone/cAMP (stimulator of PEPCK gene expression) in the presence or absence of insulin or GSK3 inhibitors. After 3 hours treatment the cells were harvested, lysed and RNA extracted using mini RNeasy spin column (Quiagen). The primer set COD2063/COD2064 (350 bp) was used for PEPCK gene. The one step RT-PCR was carried out using the Lightcycler-RNA Master SYBR Green 1 Kit. The qPCR analysis calculates the number of the PCR cycles required for the PCR product amplification to reach logarithmic phase. QPCR for a housekeeping gene—28S—was used for normalisation. PEPCK is a key enzyme in gluconeogenesis in the liver and it is known be negatively regulated by insulin via inhibition of GSK3. The effect of GSK3 inhibitors on PEPCK gene expression was studied in HEPG2 (hepatocarcinoma) cells treated with dexametasone/cAMP (a positive regulator of PEPCK gene expression) in the presence or absence of insulin or GSK3 inhibitors.
Consider “Insulin: insulin, comparator known to negatively regulate PEPCK via inhibition of GSK3”, for which the “% PEPCK activity” value was found to be 67.5 ± 9.0%.

The same data set, now with this note: HEPG2, Dex/cAMP +, concentration 1 uM; percentage of the dexametasone-induced stimulation.
For `Cc1[nH]c([N+](=O)[O-])c(C)c1-c1ccnc(Nc2ccc(N(C)C)c([N+](=O)[O-])c2)n1` [Compound 19], the “% PEPCK activity” value was 72.9 ± 9.06%.
The same measure, in the same setting: next, `Cc1[nH]c(C#N)c(C)c1-c1ccnc(Nc2ccc(Cl)nc2)n1` [Compound 30]: 22.8 ± 12.1%.

Still in this data set, the particulars now being: HEPG2, Dex/cAMP +, concentration 10 uM; percentage of the dexametasone-induced stimulation.
`Cc1[nH]c([N+](=O)[O-])c(C)c1-c1ccnc(Nc2ccc(N(C)C)c([N+](=O)[O-])c2)n1` [Compound 19]: the “% PEPCK activity” value turned out to be 45.4 ± 1.9%.
Still for that read-out and setting: next, `Cc1[nH]c(C#N)c(C)c1-c1ccnc(Nc2ccc(Cl)nc2)n1` [Compound 30]: 16.2 ± 3.8%.

Tested on in the next data set: not given
Test: not given
Conditions: not given
`Cc1[nH]cc(-c2ccccc2)c1-c1ccnc(Nc2ccc(F)cc2)n1` [Compound 16] came in with a melting point of 196.6 to 198.1 °C.
